Experimental data as given in the NIST ThermoML archive (doi:10.1021/je5002126).

Columns and labels:
[1] = xn = mol fraction of the nth substance listed; details: for electrical conductivity / viscosity / mass density: 101 kPa, Liquid; for electrical conductivity: Alternating current cell with electrodes; for viscosity: Concentric cylinders viscometry; for mass density: Vibrating tube method; for surface tension liquid-gas: Ring tensiometer
[2] = refractive index (Na D-line) (dimensionless); xn = mol fraction of the nth substance listed; details: 101 kPa, Liquid, Standard Abbe refractometry

CCCC[N+](CCCC)(CCCC)CCCC.[Cl-] [tetrabutylammonium chloride] + OCCOCCOCCO
Details | electrical conductivity, [1] [S/m] | mass density, [1] [kg/m3] | refractive index, [2] | surface tension liquid-gas, [1] [mN/m] | viscosity, [1] [mPa·s]
293.15 K, x1 = 0.5 | 0.0139 | 1027 | 1.48 | – | 870
293.15 K, x1 = 0.667 | 0.00681 | 1007 | 1.4851 | – | –
293.15 K, x1 = 0.75 | 0.00221 | 996 | 1.4858 | – | –
293.15 K, x1 = 0.8 | 0.00178 | 990 | 1.4871 | – | –
303.15 K, x1 = 0.5 | 0.0228 | 1021 | 1.4772 | 40.6 | 543.8
303.15 K, x1 = 0.667 | 0.0149 | 1001 | 1.4821 | 40.1 | 1399
303.15 K, x1 = 0.75 | 0.005 | 990 | 1.4836 | 39.3 | –
303.15 K, x1 = 0.8 | 0.0047 | 985 | 1.4841 | 40 | 3265.3
313.15 K, x1 = 0.5 | 0.0376 | 1015 | 1.4742 | 39.5 | 289.4
313.15 K, x1 = 0.667 | 0.0284 | 995 | 1.479 | 38.6 | 952.2
313.15 K, x1 = 0.75 | 0.0097 | 984 | 1.4806 | 38.3 | 7031.7
313.15 K, x1 = 0.8 | 0.0108 | 980 | 1.4811 | 38.4 | 1900.4
323.15 K, x1 = 0.5 | 0.055 | 1009 | 1.4711 | 38.8 | 166.4
323.15 K, x1 = 0.667 | 0.0458 | 989 | 1.476 | 38 | 493
323.15 K, x1 = 0.75 | 0.0154 | 978 | 1.4777 | 37.2 | 909.1
323.15 K, x1 = 0.8 | 0.0214 | 973 | 1.4781 | 37.3 | 862.9
333.15 K, x1 = 0.5 | 0.0805 | 1003 | 1.4678 | 38.2 | 100.8
333.15 K, x1 = 0.667 | 0.0676 | 983 | 1.4731 | 37.4 | 264.1
333.15 K, x1 = 0.75 | 0.0217 | 972 | 1.4747 | 36.6 | 452.1
333.15 K, x1 = 0.8 | 0.0252 | 968 | 1.4752 | 36.5 | 411.2
343.15 K, x1 = 0.5 | 0.11 | 997 | 1.4646 | 37.6 | 68.1
343.15 K, x1 = 0.667 | 0.0842 | 976 | 1.4701 | 36.4 | 154
343.15 K, x1 = 0.75 | 0.0282 | 966 | 1.4717 | 35.7 | 244.7
343.15 K, x1 = 0.8 | 0.0262 | 961 | 1.4722 | 35.6 | 204.5
353.15 K, x1 = 0.5 | 0.147 | 991 | 1.4614 | 37 | 44.7
353.15 K, x1 = 0.667 | 0.092 | 970 | 1.4673 | 35.6 | 91.3
353.15 K, x1 = 0.75 | 0.0319 | 960 | 1.4686 | 34.9 | 155.6
353.15 K, x1 = 0.8 | 0.0273 | 955 | 1.4692 | 34.6 | 99.9
